Marks after values point to notes of the source that are not given here.
System: reconstructed epidermis (Episkin J13)
Experiment: Penetration of radiolabelled caffeine through reconstructed human epidermis (barrier function)
Assay type: cell-based
Conditions: for passage of [14C]-caffeine, percentage of passage relative to an untreated control: 5 days treatment
Protocol: The efficacy of the barrier function of a skin may be evaluated by measuring the passage through it of a labelled molecule, for instance radiolabelled caffeine.
Skin with an improved barrier function is thus characterized in that it slows down, or even reduces, the passage of the said molecule through its epidermis.
Two batches of reconstructed epidermis (Episkin J13) (batches 1 and 2) are treated for 5 days with the product C-β-D-xylopyranoside-n-propan-2-one, which is applied in the culture medium at a final concentration of 0.2% and 0.04% by weight/volume.
Vitamin C is used as reference molecule at a concentration of 200 μg/ml, in systemic treatment.
After 5 days of culturing, 100 μl and 2 UCi/ml, i.e. 0.04 mM of [^14C]-caffeine (radiolabelled caffeine) and 0.35 mM of cold caffeine (non-radiolabelled caffeine) are applied to the surface, and kinetics of uptake into the medium are determined at eight different times.
The results are expressed as a percentage of passage relative to an untreated control.

CC(=O)C[C@@H]1OC[C@@H](O)[C@H](O)[C@H]1O [C-β-D-xylopyranoside-n-propan-2-one]
passage of [14C]-caffeine, percentage of passage relative to an untreated control (Batch 1 of reconstructed epidermis, 0.04% AM, sample taken at 1 h 30): 52% | passage of [14C]-caffeine, percentage of passage relative to an untreated control (Batch 1 of reconstructed epidermis, 0.04% AM, sample taken at 3 h): 66% | passage of [14C]-caffeine, percentage of passage relative to an untreated control (Batch 1 of reconstructed epidermis, 0.04% AM, sample taken at 4 h): 64 * % | passage of [14C]-caffeine, percentage of passage relative to an untreated control (Batch 1 of reconstructed epidermis, 0.04% AM, sample taken at 5 h): 73 * % | passage of [14C]-caffeine, percentage of passage relative to an untreated control (Batch 1 of reconstructed epidermis, 0.04% AM, sample taken at 6 h): 70 * % | passage of [14C]-caffeine, percentage of passage relative to an untreated control (Batch 1 of reconstructed epidermis, 0.04% AM, sample taken at 7 h): 69 * % | passage of [14C]-caffeine, percentage of passage relative to an untreated control (Batch 1 of reconstructed epidermis, 0.04% AM, sample taken at 9 h): 77 * % | passage of [14C]-caffeine, percentage of passage relative to an untreated control (Batch 1 of reconstructed epidermis, 0.04% AM, sample taken at 24 h): 75 * % | passage of [14C]-caffeine, percentage of passage relative to an untreated control (Batch 1 of reconstructed epidermis, 0.2% AM, sample taken at 1 h 30): 66% | passage of [14C]-caffeine, percentage of passage relative to an untreated control (Batch 1 of reconstructed epidermis, 0.2% AM, sample taken at 3 h): 94% | passage of [14C]-caffeine, percentage of passage relative to an untreated control (Batch 1 of reconstructed epidermis, 0.2% AM, sample taken at 4 h): 59 * % | passage of [14C]-caffeine, percentage of passage relative to an untreated control (Batch 1 of reconstructed epidermis, 0.2% AM, sample taken at 5 h): 63 * % | passage of [14C]-caffeine, percentage of passage relative to an untreated control (Batch 1 of reconstructed epidermis, 0.2% AM, sample taken at 6 h): 63 * % | passage of [14C]-caffeine, percentage of passage relative to an untreated control (Batch 1 of reconstructed epidermis, 0.2% AM, sample taken at 7 h): 66 * % | passage of [14C]-caffeine, percentage of passage relative to an untreated control (Batch 1 of reconstructed epidermis, 0.2% AM, sample taken at 9 h): 79 * % | passage of [14C]-caffeine, percentage of passage relative to an untreated control (Batch 1 of reconstructed epidermis, 0.2% AM, sample taken at 24 h): 70 * % | passage of [14C]-caffeine, percentage of passage relative to an untreated control (Batch 2 of reconstructed epidermis, 0.04% AM, sample taken at 1 h): 143% | passage of [14C]-caffeine, percentage of passage relative to an untreated control (Batch 2 of reconstructed epidermis, 0.04% AM, sample taken at 2 h): 65 * % | passage of [14C]-caffeine, percentage of passage relative to an untreated control (Batch 2 of reconstructed epidermis, 0.04% AM, sample taken at 3 h): 92% | passage of [14C]-caffeine, percentage of passage relative to an untreated control (Batch 2 of reconstructed epidermis, 0.04% AM, sample taken at 4 h): 78 * % | passage of [14C]-caffeine, percentage of passage relative to an untreated control (Batch 2 of reconstructed epidermis, 0.04% AM, sample taken at 5 h): 84% | passage of [14C]-caffeine, percentage of passage relative to an untreated control (Batch 2 of reconstructed epidermis, 0.04% AM, sample taken at 6 h): 80 * % | passage of [14C]-caffeine, percentage of passage relative to an untreated control (Batch 2 of reconstructed epidermis, 0.04% AM, sample taken at 7 h): 91% | passage of [14C]-caffeine, percentage of passage relative to an untreated control (Batch 2 of reconstructed epidermis, 0.04% AM, sample taken at 8 h): 88 * % | passage of [14C]-caffeine, percentage of passage relative to an untreated control (Batch 2 of reconstructed epidermis, 0.04% AM, sample taken at 9 h): 93% | passage of [14C]-caffeine, percentage of passage relative to an untreated control (Batch 2 of reconstructed epidermis, 0.04% AM, sample taken at 10 h): 85 * % | passage of [14C]-caffeine, percentage of passage relative to an untreated control (Batch 2 of reconstructed epidermis, 0.04% AM, sample taken at 24 h): 99% | passage of [14C]-caffeine, percentage of passage relative to an untreated control (Batch 2 of reconstructed epidermis, 0.2% AM, sample taken at 1 h): 162% | passage of [14C]-caffeine, percentage of passage relative to an untreated control (Batch 2 of reconstructed epidermis, 0.2% AM, sample taken at 2 h): 61 * % | passage of [14C]-caffeine, percentage of passage relative to an untreated control (Batch 2 of reconstructed epidermis, 0.2% AM, sample taken at 3 h): 82% | passage of [14C]-caffeine, percentage of passage relative to an untreated control (Batch 2 of reconstructed epidermis, 0.2% AM, sample taken at 4 h): 67 * % | passage of [14C]-caffeine, percentage of passage relative to an untreated control (Batch 2 of reconstructed epidermis, 0.2% AM, sample taken at 5 h): 75 * % | passage of [14C]-caffeine, percentage of passage relative to an untreated control (Batch 2 of reconstructed epidermis, 0.2% AM, sample taken at 6 h): 75 * % | passage of [14C]-caffeine, percentage of passage relative to an untreated control (Batch 2 of reconstructed epidermis, 0.2% AM, sample taken at 7 h): 84 * % | passage of [14C]-caffeine, percentage of passage relative to an untreated control (Batch 2 of reconstructed epidermis, 0.2% AM, sample taken at 8 h): 80 * % | passage of [14C]-caffeine, percentage of passage relative to an untreated control (Batch 2 of reconstructed epidermis, 0.2% AM, sample taken at 9 h): 88% | passage of [14C]-caffeine, percentage of passage relative to an untreated control (Batch 2 of reconstructed epidermis, 0.2% AM, sample taken at 10 h): 80 * % | passage of [14C]-caffeine, percentage of passage relative to an untreated control (Batch 2 of reconstructed epidermis, 0.2% AM, sample taken at 24 h): 95% | slowing down of caffeine passage compared with vitamin C (reference molecule) (result in words, comparison with vitamin C 200 μg/ml): greater | effect on the passage of the radiolabelled caffeine through the reconstructed epidermides (barrier function) (result in words, two batches of reconstructed epidermis): slows down the passage of the radiolabelled caffeine

O=C1O[C@H]([C@@H](O)CO)C(O)=C1O [Vitamin C, reference compound]
passage of [14C]-caffeine, percentage of passage relative to an untreated control (Batch 1 of reconstructed epidermis, 200 μg/ml, sample taken at 1 h 30): 81% | passage of [14C]-caffeine, percentage of passage relative to an untreated control (Batch 1 of reconstructed epidermis, 200 μg/ml, sample taken at 3 h): 95% | passage of [14C]-caffeine, percentage of passage relative to an untreated control (Batch 1 of reconstructed epidermis, 200 μg/ml, sample taken at 4 h): 81% | passage of [14C]-caffeine, percentage of passage relative to an untreated control (Batch 1 of reconstructed epidermis, 200 μg/ml, sample taken at 5 h): 80 * % | passage of [14C]-caffeine, percentage of passage relative to an untreated control (Batch 1 of reconstructed epidermis, 200 μg/ml, sample taken at 6 h): 86% | passage of [14C]-caffeine, percentage of passage relative to an untreated control (Batch 1 of reconstructed epidermis, 200 μg/ml, sample taken at 7 h): 75 * % | passage of [14C]-caffeine, percentage of passage relative to an untreated control (Batch 1 of reconstructed epidermis, 200 μg/ml, sample taken at 9 h): 85% | passage of [14C]-caffeine, percentage of passage relative to an untreated control (Batch 1 of reconstructed epidermis, 200 μg/ml, sample taken at 24 h): 85% | passage of [14C]-caffeine, percentage of passage relative to an untreated control (Batch 2 of reconstructed epidermis, 200 μg/ml, sample taken at 1 h): 117% | passage of [14C]-caffeine, percentage of passage relative to an untreated control (Batch 2 of reconstructed epidermis, 200 μg/ml, sample taken at 2 h): 77 * % | passage of [14C]-caffeine, percentage of passage relative to an untreated control (Batch 2 of reconstructed epidermis, 200 μg/ml, sample taken at 3 h): 84% | passage of [14C]-caffeine, percentage of passage relative to an untreated control (Batch 2 of reconstructed epidermis, 200 μg/ml, sample taken at 4 h): 86 * % | passage of [14C]-caffeine, percentage of passage relative to an untreated control (Batch 2 of reconstructed epidermis, 200 μg/ml, sample taken at 5 h): 71 * % | passage of [14C]-caffeine, percentage of passage relative to an untreated control (Batch 2 of reconstructed epidermis, 200 μg/ml, sample taken at 6 h): 94% | passage of [14C]-caffeine, percentage of passage relative to an untreated control (Batch 2 of reconstructed epidermis, 200 μg/ml, sample taken at 7 h): 95% | passage of [14C]-caffeine, percentage of passage relative to an untreated control (Batch 2 of reconstructed epidermis, 200 μg/ml, sample taken at 8 h): 96% | passage of [14C]-caffeine, percentage of passage relative to an untreated control (Batch 2 of reconstructed epidermis, 200 μg/ml, sample taken at 9 h): 85% | passage of [14C]-caffeine, percentage of passage relative to an untreated control (Batch 2 of reconstructed epidermis, 200 μg/ml, sample taken at 10 h): 95% | passage of [14C]-caffeine, percentage of passage relative to an untreated control (Batch 2 of reconstructed epidermis, 200 μg/ml, sample taken at 24 h): 99%
